Target: T1, recombinant human NPY 5 receptors (Homo sapiens, UniProt Q15761)
T1 construct: made in house; host or cells: Sf9 insect cells, baculovirus-infected (membranes)
T1 sequence (Q15761 1-445): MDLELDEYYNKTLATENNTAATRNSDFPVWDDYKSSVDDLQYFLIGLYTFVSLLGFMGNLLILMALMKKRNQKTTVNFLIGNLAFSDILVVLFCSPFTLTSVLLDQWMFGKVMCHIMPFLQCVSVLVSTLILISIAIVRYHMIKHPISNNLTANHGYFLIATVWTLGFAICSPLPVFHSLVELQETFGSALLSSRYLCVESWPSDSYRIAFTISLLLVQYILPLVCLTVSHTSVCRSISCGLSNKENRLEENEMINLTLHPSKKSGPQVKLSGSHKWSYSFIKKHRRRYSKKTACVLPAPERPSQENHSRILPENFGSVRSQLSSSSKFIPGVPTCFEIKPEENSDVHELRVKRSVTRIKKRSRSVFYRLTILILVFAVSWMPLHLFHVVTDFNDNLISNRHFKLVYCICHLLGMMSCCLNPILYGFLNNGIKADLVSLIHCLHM
Assay: [125I]PYY binding at human NPY5 receptors expressed in Sf9 cells
Conditions: [125I]PYY(porcine) displacement, membranes of baculovirus-infected Sf9 cells; read-out: Ki (binding constants in the NPY5)
Protocol: [^125 I]PYY Binding at Human NPY Receptors Expressed in Sf9 Cells
Baculovirus-infected Sf9 cells expressing recombinant human NPY 5 receptors are harvested at 48 hours. At the time of harvest, cell pellets are resuspended in lysis buffer (20 mM Tris-HCl, pH 7.4, 5 mM EDTA, 0.5 μg/ml leupeptin, 2 μg/ml Aprotonin and […]) and homogenized using a Polytron (setting 3, 25-30 seconds). Homogenates are centrifuged at 4° C. for 5 minutes at 200 x g ([…]) to pellet the nuclei. The supernatant is collected into a fresh tube and centrifuged at 48,000 x g for 10 minutes. Pellets are washed once in lysis buffer and centrifuged. The final pellet is resuspended in PBS and stored in aliquots at -80° C. Purified membranes are washed using PBS and resuspended in binding buffer (50 mM Tris(HCl), pH 7.4, 5 mM KCl, 120 mM NaCl, 2 mM CaCl2, 1 mM MgCl2, 0.1% bovine serum albumin (BSA)). Membranes (20 μg/reaction tube) are added to polypropylene tubes containing 0.035 nM [^125 I]PYY(porcine), displacers ranging from 10^-12 M to 10^-5 M, and buffer to yield a final volume of 0.5 mL. Nonspecific binding is determined in the presence of 1 μM NPY(human) and accounts for 10% of total binding. Following a 2 hour incubation at room temperature, the reaction is terminated by rapid vacuum filtration. […] IC50 values were calculated with the non-linear curve fitting program RS/1 (SigmaPlot, Jandel).

Structure (SMILES)	Ki [µM]
Cc1ccc(NC(=O)C(c2ccccc2)c2ccccc2)cc1 [--CH3]	0.8
CCN(CC)c1ccc(NC(=O)C(c2ccccc2)c2ccccc2)cc1 [--N(C2 H5)2]	0.008

— patent US6197822A, “Neuropeptide antagonists” (Pfizer Inc., priority 2000, dated 2001)
